# Measured values: patent US20230250077A1, “SULFONYLBENZAMIDE DERIVATIVE AND CONJUGATE THEREOF, PREPARATION METHOD THEREFOR AND USE THEREOF” (Jiangsu Hengrui Pharmaceuticals Co., Ltd., priority 2020, published 2023)
# Assay: Pharmacokinetic evaluation in mice (iv, LC/MS/MS plasma)
# Type: in vivo
# Conditions: intravenous administration
# Experimental: The drug concentration in the plasma of the test animals (mice) at different time points after intravenous (iv) administration of compound 10 and AZD4320 was determined by an LC/MS/MS method. The pharmacokinetic behavior of the compounds of the present disclosure in mice was studied and their pharmacokinetic profile was valuated.
# 18 C57 mice, female, randomly divided into 2 groups, purchased from Zhejiang Vital River Laboratory Animal Technology Co., Ltd, animal production license number: SCXK (Shanghai) 2017-0005.
# A certain amount of compound 10 was weighed, dissolved by adding 5% by volume of DMSO and 5% Tween 80 (Shanghai Titan Scientific Co., Ltd.), and then prepared into a 0.1 mg/mL clear solution by adding 90% normal saline. Compound AZD4320 was formulated as with compound 10. […]
# (§1) The mice were intravenously administered with compound 10, and 0.1 mL of blood was collected before the administration and 5 min, 0.25 h, 0.5 h, 1.0 h, 2.0 h, 4.0 h, 8.0 h, 11.0 h and 24.0 h after the administration, put into an EDTA-K2 anticoagulation tube, centrifuged at 10,000 rpm for 1 min (4° C.). Plasma was separated within 1 hour, and stored at −20° C. for testing. The process from blood collection to centrifugation was performed under an ice bath.
# as §1, with “compound AZD4320,” for “compound 10,”
# The content of the test compounds at different concentrations in plasma of mice after the administration was determined: 10 μL of plasma of mice at each time point after the administration was mixed with 200 μL of methanol (containing an internal standard solution camptothecin (100 ng/mL)); the mixture was vortexed for 1 min, and centrifuged for 10 min (18,000 r/min), and 3 μL of supernatant was taken for LC/MS/MS analysis.
structure (smiles),measurement,setting,value
"CN(CCO)CC[C@H](CSc1ccccc1)Nc1ccc(S(=O)(=O)NC(=O)c2ccc(N3CCC([C@@H](O)c4ccccc4-c4ccc(C(F)(F)F)cc4)CC3)cc2)cc1S(=O)(=O)C(F)(F)F [Example 2-10, 4-(4-((R)-hydroxy(4′-(trifluoromethyl)-[1,1′-biphenyl]-2-yl)methyl)piperidin-1-yl)-N-((4-(((R)-4-((2-hydroxyethyl)(methyl)amino)-1-(phenylthio)butan-2-yl)amino)-3-((trifluoromethyl)sulfonyl)phenyl)sulfonyl)benzamide]",Clearance CLz/F,"C57 mice, female, dose 1 mg/kg (table)",50.3 mL/min/kg
same,Clearance in mice (in words),mice,cleared slowly
same,Elimination phase half-life compared with the positive control AZD 4320 (in words),mice,longer elimination phase half-life than the positive control AZD 4320
same,AUC(0-t),"mouse, plasma, C57 mice, female, dose 1 mg/kg (table), read-out: Area under curve AUC0-t",296 ng·h/mL
same,half-life,"mouse, plasma, C57 mice, female, dose 1 mg/kg (table), read-out: Half-life T½ (converted)",13 h
same,MRT inf,"mouse, plasma, C57 mice, female, dose 1 mg/kg (table), read-out: Mean retention time MRT 0-∞",7.3 h
same,concentration at 5 min,"mouse, plasma, C57 mice, female, dose 1 mg/kg (table), read-out: Plasma Concentration C5 min",608 ng/mL
